Columns and labels:
Test in all cases: DiscoverX KINOMEscan kinase profiling (468 assays)
Format in all cases: binding
human kinome [1] = target: human kinome (Homo sapiens, UniProt P51955); conditions: read-out: Percent Control
Summary of the method: (§1)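 VIP152 was run in DMSO, alongside a DMSO control. Readout was qPCR of DNA-tagged kinase still bound to bead-immobilized biotinylated kinase ligands after compound competition.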

human kinome [2] = target: human kinome (Homo sapiens, UniProt Q13873); conditions: BMPR2; 100 nM; read-out: Percent Control
Summary of the method: as §1

human kinome [3] = target: human kinome (Homo sapiens, UniProt Q9UM73, L1196M); conditions: ALK(L1196M); 100 nM; read-out: Percent Control
Summary of the method: as §1

human kinome [4] = target: human kinome (Homo sapiens, UniProt O14733); conditions: MKK7 (Entrez MAP2K7); 100 nM; read-out: Percent Control
human kinome (Homo sapiens, UniProt O14733), sequence (O14733 whole entry): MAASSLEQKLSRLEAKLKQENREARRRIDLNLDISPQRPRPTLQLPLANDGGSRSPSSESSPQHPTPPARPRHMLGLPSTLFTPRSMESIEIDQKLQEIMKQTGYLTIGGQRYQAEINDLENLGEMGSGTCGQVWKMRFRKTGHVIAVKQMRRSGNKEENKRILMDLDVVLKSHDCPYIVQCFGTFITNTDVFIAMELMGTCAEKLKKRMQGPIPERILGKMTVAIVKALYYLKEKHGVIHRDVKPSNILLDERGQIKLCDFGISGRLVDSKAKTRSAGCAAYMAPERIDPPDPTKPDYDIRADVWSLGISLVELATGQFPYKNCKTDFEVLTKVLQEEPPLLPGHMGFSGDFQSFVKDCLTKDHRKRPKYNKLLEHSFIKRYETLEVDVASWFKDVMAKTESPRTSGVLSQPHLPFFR
Summary of the method: as §1

human kinome [5] = target: human kinome (Homo sapiens, UniProt Q8N4C8); conditions: MINK (Entrez MINK1); 100 nM; read-out: Percent Control
Summary of the method: as §1

human kinome [6] = target: human kinome (Homo sapiens, UniProt Q9UKE5); conditions: kinase TNIK (Entrez TNIK); compound concentration 1000 nM; read-out: Percent Control
Summary of the method: as §1

human kinome [7] = target: human kinome (Homo sapiens, UniProt P00533, G719C); conditions: EGFR(G719C); 100 nM; read-out: Percent Control
Summary of the method: as §1

human kinome [8] = target: human kinome (Homo sapiens, UniProt Q16620); conditions: kinase TRKB (Entrez NTRK2); compound concentration 1000 nM; read-out: Percent Control
Summary of the method: as §1

human kinome [9] = target: human kinome (Homo sapiens, UniProt P10721, T670I/V559D); conditions: KIT(V559D,T670I); 100 nM; read-out: Percent Control
Summary of the method: as §1

human kinome [10] = target: human kinome (Homo sapiens, UniProt P57059); conditions: kinase SIK (Entrez SIK1); compound concentration 1000 nM; read-out: Percent Control
Summary of the method: as §1

human kinome [11] = target: human kinome (Homo sapiens, UniProt Q6P3R8); conditions: read-out: Percent Control
human kinome (Homo sapiens, UniProt Q6P3R8), sequence (Q6P3R8 whole entry): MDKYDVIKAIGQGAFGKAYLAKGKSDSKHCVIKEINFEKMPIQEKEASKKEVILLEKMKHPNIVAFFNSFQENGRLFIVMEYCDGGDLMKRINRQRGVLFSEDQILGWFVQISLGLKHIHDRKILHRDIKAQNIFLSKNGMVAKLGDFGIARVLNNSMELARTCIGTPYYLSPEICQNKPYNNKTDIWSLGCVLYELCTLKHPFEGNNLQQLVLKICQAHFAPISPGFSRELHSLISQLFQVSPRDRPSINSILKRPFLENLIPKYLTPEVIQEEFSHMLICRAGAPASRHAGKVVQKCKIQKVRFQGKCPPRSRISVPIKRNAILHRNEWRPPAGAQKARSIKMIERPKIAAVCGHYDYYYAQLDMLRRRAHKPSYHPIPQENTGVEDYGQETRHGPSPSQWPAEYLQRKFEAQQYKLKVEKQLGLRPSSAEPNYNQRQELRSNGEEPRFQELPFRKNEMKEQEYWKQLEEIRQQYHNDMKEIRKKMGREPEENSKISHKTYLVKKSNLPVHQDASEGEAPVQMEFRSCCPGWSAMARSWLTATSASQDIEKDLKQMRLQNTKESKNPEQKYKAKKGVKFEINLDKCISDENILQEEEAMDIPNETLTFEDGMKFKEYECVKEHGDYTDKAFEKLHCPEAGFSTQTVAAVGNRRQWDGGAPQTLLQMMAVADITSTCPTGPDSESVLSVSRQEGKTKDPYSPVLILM
Summary of the method: as §1

human kinome [12] = target: human kinome (Homo sapiens, UniProt Q06418); conditions: kinase TYRO3 (Entrez TYRO3); compound concentration 1000 nM; read-out: Percent Control
Summary of the method: as §1

human kinome [13] = target: human kinome (Homo sapiens, UniProt P27448); conditions: MARK3; 100 nM; read-out: Percent Control
Summary of the method: as §1

human kinome [14] = target: human kinome (Homo sapiens, UniProt Q96NX5); conditions: CAMK1G; 100 nM; read-out: Percent Control
Summary of the method: as §1

human kinome [15] = target: human kinome (Homo sapiens, UniProt Q6ZWH5); conditions: read-out: Percent Control
human kinome (Homo sapiens, UniProt Q6ZWH5), sequence (Q6ZWH5 whole entry): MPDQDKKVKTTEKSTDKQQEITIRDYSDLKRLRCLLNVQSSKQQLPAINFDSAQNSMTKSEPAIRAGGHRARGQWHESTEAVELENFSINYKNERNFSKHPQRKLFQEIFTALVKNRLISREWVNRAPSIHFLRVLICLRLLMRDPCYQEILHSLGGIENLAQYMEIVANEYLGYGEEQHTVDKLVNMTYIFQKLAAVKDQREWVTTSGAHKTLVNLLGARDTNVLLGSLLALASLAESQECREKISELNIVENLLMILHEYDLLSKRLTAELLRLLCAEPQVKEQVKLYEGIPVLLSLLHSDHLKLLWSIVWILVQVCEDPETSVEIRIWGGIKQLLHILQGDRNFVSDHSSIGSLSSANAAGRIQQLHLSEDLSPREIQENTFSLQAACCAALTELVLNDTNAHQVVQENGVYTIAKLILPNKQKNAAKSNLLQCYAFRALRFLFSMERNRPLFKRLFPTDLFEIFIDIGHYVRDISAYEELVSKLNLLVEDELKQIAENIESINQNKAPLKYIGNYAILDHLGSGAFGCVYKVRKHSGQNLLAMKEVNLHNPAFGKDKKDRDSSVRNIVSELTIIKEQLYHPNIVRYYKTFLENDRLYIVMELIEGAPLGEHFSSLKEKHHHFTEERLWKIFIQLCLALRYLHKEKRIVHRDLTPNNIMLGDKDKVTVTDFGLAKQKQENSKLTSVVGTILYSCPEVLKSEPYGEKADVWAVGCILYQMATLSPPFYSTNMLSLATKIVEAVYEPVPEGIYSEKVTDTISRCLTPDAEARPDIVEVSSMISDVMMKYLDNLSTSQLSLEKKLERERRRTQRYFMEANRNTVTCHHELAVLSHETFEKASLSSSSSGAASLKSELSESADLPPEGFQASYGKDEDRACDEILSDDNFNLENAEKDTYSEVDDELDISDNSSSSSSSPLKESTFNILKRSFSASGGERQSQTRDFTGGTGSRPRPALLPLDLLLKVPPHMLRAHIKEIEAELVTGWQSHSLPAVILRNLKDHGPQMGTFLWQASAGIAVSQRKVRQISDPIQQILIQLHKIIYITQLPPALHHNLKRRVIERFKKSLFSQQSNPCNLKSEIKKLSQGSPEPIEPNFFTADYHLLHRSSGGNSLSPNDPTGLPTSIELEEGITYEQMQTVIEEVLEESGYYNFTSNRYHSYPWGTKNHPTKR
Summary of the method: as §1

human kinome [16] = target: human kinome (Homo sapiens, UniProt P00533, DEL752-759); conditions: EGFR(S752-I759del); 100 nM; read-out: Percent Control
Summary of the method: as §1

human kinome [17] = target: human kinome (Homo sapiens, UniProt P00533, L861Q); conditions: EGFR(L861Q); 100 nM; read-out: Percent Control
Summary of the method: as §1

human kinome [18] = target: human kinome (Homo sapiens, UniProt Q8TDC3); conditions: BRSK1; 100 nM; read-out: Percent Control
Summary of the method: as §1

human kinome [19] = target: human kinome (Homo sapiens, UniProt P51817); conditions: read-out: Percent Control
human kinome (Homo sapiens, UniProt P51817), sequence (P51817 whole entry): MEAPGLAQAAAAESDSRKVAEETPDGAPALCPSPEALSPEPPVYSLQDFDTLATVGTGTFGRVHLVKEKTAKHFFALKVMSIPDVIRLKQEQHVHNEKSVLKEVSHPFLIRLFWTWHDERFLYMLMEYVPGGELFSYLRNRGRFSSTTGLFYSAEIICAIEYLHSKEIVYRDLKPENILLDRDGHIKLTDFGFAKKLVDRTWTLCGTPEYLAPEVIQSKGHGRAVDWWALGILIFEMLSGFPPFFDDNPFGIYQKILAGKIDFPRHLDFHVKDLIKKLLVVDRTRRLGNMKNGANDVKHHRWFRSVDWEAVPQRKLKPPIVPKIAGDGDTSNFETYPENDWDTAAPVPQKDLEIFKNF
Summary of the method: as §1

human kinome [20] = target: human kinome (Homo sapiens, UniProt O96013); conditions: read-out: Percent Control
human kinome (Homo sapiens, UniProt O96013), sequence (O96013 whole entry): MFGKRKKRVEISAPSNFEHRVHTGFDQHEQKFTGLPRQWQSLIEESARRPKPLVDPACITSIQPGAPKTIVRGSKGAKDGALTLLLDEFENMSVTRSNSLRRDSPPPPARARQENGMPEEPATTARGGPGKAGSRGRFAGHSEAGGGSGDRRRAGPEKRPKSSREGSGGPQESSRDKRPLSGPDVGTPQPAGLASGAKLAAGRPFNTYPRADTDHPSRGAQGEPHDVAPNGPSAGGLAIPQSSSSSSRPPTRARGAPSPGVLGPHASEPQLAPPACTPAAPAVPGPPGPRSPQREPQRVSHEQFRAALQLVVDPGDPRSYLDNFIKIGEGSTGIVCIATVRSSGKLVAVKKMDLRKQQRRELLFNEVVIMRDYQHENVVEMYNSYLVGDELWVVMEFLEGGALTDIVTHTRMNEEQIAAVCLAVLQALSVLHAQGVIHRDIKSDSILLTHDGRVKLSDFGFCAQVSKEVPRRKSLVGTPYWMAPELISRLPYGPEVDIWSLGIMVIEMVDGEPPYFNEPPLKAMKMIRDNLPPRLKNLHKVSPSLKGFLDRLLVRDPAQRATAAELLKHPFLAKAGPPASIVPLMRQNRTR
Summary of the method: as §1

human kinome [21] = target: human kinome (Homo sapiens, UniProt Q02156); conditions: read-out: Percent Control
human kinome (Homo sapiens, UniProt Q02156), sequence (Q02156 whole entry): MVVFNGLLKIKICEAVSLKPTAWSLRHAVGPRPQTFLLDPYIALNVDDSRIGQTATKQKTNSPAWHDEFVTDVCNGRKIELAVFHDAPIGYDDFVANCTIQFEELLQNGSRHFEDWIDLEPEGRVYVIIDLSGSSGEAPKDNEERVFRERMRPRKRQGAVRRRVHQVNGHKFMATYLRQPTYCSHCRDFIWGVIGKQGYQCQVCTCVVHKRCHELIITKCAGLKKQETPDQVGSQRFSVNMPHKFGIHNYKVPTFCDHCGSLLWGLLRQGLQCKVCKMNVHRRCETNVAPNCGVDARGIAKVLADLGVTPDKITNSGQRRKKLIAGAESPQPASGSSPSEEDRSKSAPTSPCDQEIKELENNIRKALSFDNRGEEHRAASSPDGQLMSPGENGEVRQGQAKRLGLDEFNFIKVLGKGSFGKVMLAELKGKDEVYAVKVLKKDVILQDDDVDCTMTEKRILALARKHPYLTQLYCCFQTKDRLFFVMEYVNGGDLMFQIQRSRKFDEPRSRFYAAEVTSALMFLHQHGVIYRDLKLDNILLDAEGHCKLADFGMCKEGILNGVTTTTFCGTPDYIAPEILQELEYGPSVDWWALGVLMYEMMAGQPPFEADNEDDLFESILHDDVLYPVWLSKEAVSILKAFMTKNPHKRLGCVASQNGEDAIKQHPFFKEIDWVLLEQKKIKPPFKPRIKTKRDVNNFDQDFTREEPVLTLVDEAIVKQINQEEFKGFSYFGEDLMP
Summary of the method: as §1

human kinome [22] = target: human kinome (Homo sapiens, UniProt P36888, D835Y); conditions: FLT3(D835Y); 100 nM; read-out: Percent Control
Summary of the method: as §1

human kinome [23] = target: human kinome (Homo sapiens, UniProt Q8IW41); conditions: MAPKAPK5; 100 nM; read-out: Percent Control
Summary of the method: as §1

human kinome [24] = target: human kinome (Homo sapiens, UniProt Q07002); conditions: read-out: Percent Control
human kinome (Homo sapiens, UniProt Q07002), sequence (Q07002 whole entry): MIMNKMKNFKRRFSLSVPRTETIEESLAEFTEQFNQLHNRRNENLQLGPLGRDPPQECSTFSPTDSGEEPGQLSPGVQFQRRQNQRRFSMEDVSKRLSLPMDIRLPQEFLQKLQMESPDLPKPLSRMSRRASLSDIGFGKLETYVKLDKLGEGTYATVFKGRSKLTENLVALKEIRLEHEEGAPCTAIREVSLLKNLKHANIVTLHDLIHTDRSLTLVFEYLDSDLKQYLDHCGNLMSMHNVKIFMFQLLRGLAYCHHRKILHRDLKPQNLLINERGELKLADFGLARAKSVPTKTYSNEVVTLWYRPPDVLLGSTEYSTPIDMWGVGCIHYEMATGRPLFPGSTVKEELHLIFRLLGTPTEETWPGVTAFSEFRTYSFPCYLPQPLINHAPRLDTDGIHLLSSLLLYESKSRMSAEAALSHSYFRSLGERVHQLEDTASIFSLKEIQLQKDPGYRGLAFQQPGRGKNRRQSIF
Summary of the method: as §1

human kinome [25] = target: human kinome (Homo sapiens, UniProt Q8IVH8); conditions: MAP4K3; 100 nM; read-out: Percent Control
Summary of the method: as §1

human kinome [26] = target: human kinome (Homo sapiens, UniProt P53355); conditions: DAPK1; 100 nM; read-out: Percent Control
Summary of the method: as §1

human kinome [27] = target: human kinome (Homo sapiens, UniProt Q9HCP0); conditions: CSNK1G1; 100 nM; read-out: Percent Control
Summary of the method: as §1

human kinome [28] = target: human kinome (Homo sapiens, UniProt Q86Y07); conditions: kinase VRK2 (Entrez VRK2); compound concentration 1000 nM; read-out: Percent Control
Summary of the method: as §1

human kinome [29] = target: human kinome (Homo sapiens, UniProt Q8TDR2); conditions: kinase STK35 (Entrez STK35); compound concentration 1000 nM; read-out: Percent Control
Summary of the method: as §1

human kinome (Homo sapiens, UniProt P51955), sequence (P51955 whole entry): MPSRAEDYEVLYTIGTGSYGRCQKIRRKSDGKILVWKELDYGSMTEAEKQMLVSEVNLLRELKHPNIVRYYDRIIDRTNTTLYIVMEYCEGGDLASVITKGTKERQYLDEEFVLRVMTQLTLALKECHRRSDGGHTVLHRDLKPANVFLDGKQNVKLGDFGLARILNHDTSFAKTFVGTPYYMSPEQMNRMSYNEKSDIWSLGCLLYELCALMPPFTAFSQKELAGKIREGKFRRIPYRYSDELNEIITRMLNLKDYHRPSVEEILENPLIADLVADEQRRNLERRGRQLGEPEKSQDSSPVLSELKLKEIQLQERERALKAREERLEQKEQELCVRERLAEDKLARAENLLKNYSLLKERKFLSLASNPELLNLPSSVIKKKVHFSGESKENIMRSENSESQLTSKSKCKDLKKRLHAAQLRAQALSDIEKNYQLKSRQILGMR

`COc1cc(F)ccc1-c1cc(Nc2cc(CS(C)(=N)=O)ccn2)ncc1F` (stereo not drawn) [VIP152] was tested, and the remaining binding at 0.1 µM (human kinome [1]; NEK2, 100 nM) was 100%, the remaining binding at 1 µM (human kinome [1]; kinase NEK2 (Entrez NEK2), compound concentration 1000 nM) was 84% and the remaining binding at 0.1 µM (human kinome [2]) was 99%. The remaining binding at 0.1 µM (human kinome [3]) was 100%, the remaining binding at 0.1 µM (human kinome [4]) was 86% and the remaining binding at 0.1 µM (human kinome [5]) was 100%. It also gave a remaining binding at 1 µM (human kinome [6]) of 32%, a remaining binding at 0.1 µM (human kinome [7]) of 100% and a remaining binding at 1 µM (human kinome [8]) of 30%. It also gave a remaining binding at 0.1 µM (human kinome [9]) of 100%, a remaining binding at 1 µM (human kinome [10]) of 88% and a remaining binding at 0.1 µM (human kinome [11]; NEK5, 100 nM) of 100%. It also gave a remaining binding at 1 µM (human kinome [11]; kinase NEK5 (Entrez NEK5), compound concentration 1000 nM) of 92%, a remaining binding at 1 µM (human kinome [12]) of 56% and a remaining binding at 0.1 µM (human kinome [13]) of 99%. For the same compound, the remaining binding at 0.1 µM (human kinome [14]) was 100%, the remaining binding at 0.1 µM (human kinome [15]; NEK10, 100 nM) was 97% and the remaining binding at 1 µM (human kinome [15]; kinase NEK10 (Entrez NEK10), compound concentration 1000 nM) was 77%. It also gave a remaining binding at 0.1 µM (human kinome [16]) of 100%, a remaining binding at 0.1 µM (human kinome [17]) of 100% and a remaining binding at 0.1 µM (human kinome [18]) of 100%. It also gave a remaining binding at 0.1 µM (human kinome [19]; PRKX, 100 nM) of 100%, a remaining binding at 1 µM (human kinome [19]; kinase PRKX (Entrez PRKX), compound concentration 1000 nM) of 99% and a remaining binding at 0.1 µM (human kinome [20]; PAK4, 100 nM) of 100%. For the same compound, the remaining binding at 1 µM (human kinome [20]; kinase PAK4 (Entrez PAK4), compound concentration 1000 nM) was 89%, the remaining binding at 0.1 µM (human kinome [21]; PRKCE, 100 nM) was 58% and the remaining binding at 1 µM (human kinome [21]; kinase PRKCE (Entrez PRKCE), compound concentration 1000 nM) was 99%. It also gave a remaining binding at 0.1 µM (human kinome [22]) of 100%, a remaining binding at 0.1 µM (human kinome [23]) of 100% and a remaining binding at 0.1 µM (human kinome [24]; PCTK3 (Entrez CDK18), 100 nM) of 100%. For the same compound, the remaining binding at 1 µM (human kinome [24]; kinase PCTK3 (Entrez CDK18), compound concentration 1000 nM) was 84%, the remaining binding at 0.1 µM (human kinome [25]) was 100% and the remaining binding at 0.1 µM (human kinome [26]) was 100%. The remaining binding at 0.1 µM (human kinome [27]) was 100%, the remaining binding at 1 µM (human kinome [28]) was 81% and the remaining binding at 1 µM (human kinome [29]) was 95%.

— paper PMC9898036, “VIP152 is a selective CDK9 inhibitor with pre-clinical in vitro and in vivo efficacy in chronic lymphocytic leukemia” (Leukemia, 2022)
